From patent US20210009673A1, “METHODS FOR REGULATING BREAST CANCERS” (priority 2018, published 2021)

Columns and labels:
[1] = system: MDA-MB-231 cells; assay: growth of MDA-MB-231 breast cancer cells in culture (viable cell count); assay type: cell-based, human
Experimental: (§1) FIG. 22: FIG. 22 illustrates: in (A), the c-met/ALK dual inhibitor PF2341066 blocks growth of MDA-MB-231 cells. MDA-MB-231 breast cancer cells were treated with 1 nM, 10 nM, 100 nM, and 1 μM PF2341066, the number of viable cells was counted for ten days, and represented as average with standard deviation. In (B), The c-met/ALK dual inhibitor PF2341066 blocks growth of T47D cells. T47D breast cancer cells were treated with 1 nM, 10 nM, 100 nM, and 1 μM PF2341066, the number of viable cells was counted for ten days, and represented as average with standard deviation. In (C), The ALK inhibitor PF2341066 delays MDA-MB-231 cell growth as tumors in flanks of nude mice. MDA-MB-231 cells were injected in flanks of nude mice. The mice were divided in two groups, which were given 50 mg/kg PF2341066 daily by oral gavage or an equal volume of DMSO as control. Tumor size was measured daily and is represented as average tumor burden in each group.
(§2) The MDA-MB-231 (FIG. 22A) and T47D (FIG. 22B) cells were then treated with the ALK inhibitor PF2341066.
(§3) MDA-MB-231, MCF-7, and T47D cells were obtained from American Tissue Collection Center (ATCC) and grown in DMEM supplemented with 10% fetal bovine serum (FBS) and 1% penicillin/streptomycin at 37° C. in a 5% CO2 atmosphere. […]

[2] = system: T47D cells; assay: growth of T47D breast cancer cells in culture (viable cell count); assay type: cell-based, human
Experimental: as §1, §2, §3

[3] = system: MDA-MB-231 cell xenograft; assay: MDA-MB-231 xenograft growth in flanks of nude mice; assay type: in vivo; conditions: 50 mg/kg daily oral gavage
Experimental: as §1, with “group. […]” for “group.”
Male athymic nude mice (8 weeks old, Cby.Cg-Foxn1nu) were used. […] The sites of injection were observed daily for tumor growth beginning 1 day after injection and tumor length (L) and width (W) were measured, and tumor volume was estimate using the formula (LXW2)/2.

[4] = system: β-catenin; assay: tyrosine phosphorylation of β-catenin in PTN-stimulated U87MG cells; assay type: cell-based, human; conditions: U87MG cells preincubated with inhibitor; 50 ng PTN/ml
Experimental: FIG. 1: FIG. 1 illustrates in (A) PTN stimulation of tyrosine phosphorylation of β-catenin in cells that express RPTPβ/ζ and ALK. COS7 cells transiently expressing ALK and RPTPβ/ζ were stimulated with 10 ng PTN/ml. Cell lysates were prepared and used to immunoprecipitate β-catenin. The immunoprecipitates were analyzed in Western blots probed with anti-phosphotyrosine antibodies. Lane 1, cells transfected with ALK that were not stimulated with PTN. Lane 2, cells transfected with ALK stimulated with PTN. Lane 3, cells transfected with empty vector not stimulated with PTN. Lane 4, cells transfected with empty vector stimulated with PTN. […] The immunoprecipitates were analyzed in Western blots probed with anti-phosphotyrosine antibodies. […] Cell lysates were used to immunoprecipitate β-catenin and the immunoprecipitates were analyzed in Western blots probed with anti-phospho-tyrosine antibodies and reprobed with anti-β-catenin antibodies. […] MCF-7 cells that stably express EGFR/RPTPβ/ζ not transfected with ALK were analyzed as above. […] Lysates of MCF-7 cells and lysates of MCF-7 cells stimulated with EGF were used to immunoprecipitate β-catenin and the immunoprecipitates were analyzed in Western blots probed with anti-phospho-tyrosine antibodies and separately with anti-β-catenin antibodies. […]

[5] = system: Akt; assay: phosphorylation of Akt in PTN-stimulated HUVS cells; assay type: cell-based, human; conditions: cells preincubated with EGFR inhibitor; PTN 2-20 minutes
Experimental: FIG. 11: FIG. 11 illustrates: human umbilical vein stromal cells not stimulated or stimulated with 50 ng/ml of PTN for 2, 5, 10 or 20 minutes were used to prepare cell lysates that were analyzed in Western blots probed with anti-phospho threonine 308 Akt (panel A), anti-phospho serine 473 Akt (panel B), anti-phospho-serine 9 GSK3β (panel C), anti-phospho-serine 33, 37 and […] β-catenin (panel D) or anti-actin antibodies (panel E). Akt was immunoprecipitated from those lysates using anti-Akt antibodies, incubated with a fusion peptide containing the 20 N-terminal amino acids of GSK3β and analyzed in Western-blots probed using anti-phospho-serine 9 GSK3β antibodies (panel F).
To pursue this pathway of nuclear import of β-catenin, HUVS cells were stimulated with PTN (50 ng/ml), lysed, and analyzed in Western blots probed with anti-phosphothreonine 308 Akt or anti-phosphoserine 473 Akt antibodies (FIG. 11, panel A and B). […]
The association of adaptor proteins that associate with specific phosphorylated sites in activated EGFR are responsible for the activation of phosphatidyl-inositol 3-kinase (PI3K). […] The cells were stimulated with PTN for 2, 5, 10, and 20 minutes, cell lysates were prepared, and the lysates were analyzed in Western blots probed with anti-phospho-Akt (Ser473), anti-phospho-GSKβ (Ser9), and anti-phospho-β-catenin (Thr42) antibodies. […]

[6] = system: β-catenin; assay: tyrosine phosphorylation of β-catenin in MCF-7-EGFR/RPTPβ/ζ cells expressing ALK; assay type: cell-based
Experimental: FIG. 1: FIG. 1 illustrates in (A) PTN stimulation of tyrosine phosphorylation of β-catenin in cells that express RPTPβ/ζ and ALK. COS7 cells transiently expressing ALK and RPTPβ/ζ were stimulated with 10 ng PTN/ml. Cell lysates were prepared and used to immunoprecipitate β-catenin. The immunoprecipitates were analyzed in Western blots probed with anti-phosphotyrosine antibodies. Lane 1, cells transfected with ALK that were not stimulated with PTN. Lane 2, cells transfected with ALK stimulated with PTN. Lane 3, cells transfected with empty vector not stimulated with PTN. Lane 4, cells transfected with empty vector stimulated with PTN. In (B), ALK and RPTPβ/ζ, but not Src, are necessary for PTN to stimulate tyrosine phosphorylation of activation of β-catenin. U87MG cells and U87MG cells that had been transfected with an shRNA targeting either RPTPβ/ζ or ALK or preincubated with the src inhibitor PP2 were stimulated with 50 ng PTN/ml or not (control) and cell lysates used to immunoprecipitate β-catenin. The immunoprecipitates were analyzed in Western blots probed with anti-phosphotyrosine antibodies. […] Cell lysates were used to immunoprecipitate β-catenin and the immunoprecipitates were analyzed in Western blots probed with anti-phospho-tyrosine antibodies and reprobed with anti-β-catenin antibodies. […] MCF-7 cells that stably express EGFR/RPTPβ/ζ not transfected with ALK were analyzed as above. […] Lysates of MCF-7 cells and lysates of MCF-7 cells stimulated with EGF were used to immunoprecipitate β-catenin and the immunoprecipitates were analyzed in Western blots probed with anti-phospho-tyrosine antibodies and separately with anti-β-catenin antibodies. Lysates of MCF-7 cells transfected with ALK and stimulated with PTN, EGF or pervanadate were immunoprecipitated with anti-β-catenin antibodies and the immunoprecipitates were analyzed in Western blots probed with anti-phospho-tyrosine antibodies and separately with anti-β-catenin antibodies. […]

[7] = system: ALK; assay: tyrosine phosphorylation of ALK in MCF-7-EGFR/RPTPβ/ζ cells; assay type: cell-based; conditions: EGF at 1 minute and at 5 minutes
[8] = system: β-catenin; assay: ubiquitination of β-catenin in HUVS cells (Rad23 capture); assay type: cell-based, human; conditions: PTN-stimulated cells pre-incubated with proteasome inhibitor
Experimental: FIG. 12: FIG. 12 illustrates: human umbilical vein stromal cells not stimulated (lane 1) or stimulated with 50 ng/ml of PTN for 15 (lane 2), or 30 minutes (lane 3) were used to prepare cell lysates that were incubated with Rad23-conjugated agarose beads to pull-down ubiquitinated proteins and analyzed in Western-blots probed with anti-β-catenin antibodies (upper panel) and reprobed with anti-ubiquitin antibodies (lower panel). Cells pre-incubated with LY294002 were stimulated with PTN for 15 minutes (lane 4). Cells pre-incubated with lactacystin were stimulated with PTN for 15 minutes (lane 5).
Human umbilical vein stromal cells were lysed in a buffer prepared with 50 mM Tris, pH 7.2, 150 mM NaCl pH 7.5, 1% NP40, 0.25% sodium deoxicholate, Complete EDTA-free Protease Inhibitor Cocktail and 2 mM sodium orthovanadate. […] The beads were washed 4 times with lysis buffer and analyzed using Western blots.
β-catenin is rapidly degraded through the ubiquitin proteasome proteolytic pathway, thereby setting steady state levels of β-catenin by balancing its degradation with new synthesis of this key regulatory protein. […] Proteins captured with Rad23 Sepharose were eluted and analyzed in Western blots probed with anti-β-catenin antibodies (FIG. 12, upper panel) and the blots were reprobed with anti-ubiquitin antibodies (FIG. 12, lower panel). […]

For `C[C@@H](Oc1cc(-c2cnn(C3CCNCC3)c2)cnc1N)c1c(Cl)ccc(F)c1Cl` [PF2341066], the “proliferation of MDA-MB-231 cells” value ([1]; 1 nM-1 μM, ten days) was “dose-dependent block in proliferation”, the “growth of MDA-MB-231 cells” value ([1]; 1 μM) was “effectively prevented growth” and the “proliferation of T47D cells” value ([2]; 1 nM-1 μM, ten days) was “dose-dependent block in proliferation”. For the same molecule, the “reduction of T47D cell growth” value ([2]; 1 μM) was “about 13 fold”, the “reduction of tumor burden” value ([3]; day 22) was “about 3.5 fold” and the “reduction of tumor burden” value ([3]; end of the experiment) was “about 3 fold”.

With `CC(C)(C)n1nc(-c2ccc(Cl)cc2)c2c(N)ncnc21` [PP2, reference compound] the “inhibition of PTN-stimulated tyrosine phosphorylation of β-catenin” value [4] was “failed to inhibit”.

In the case of `COc1cc2ncnc(Nc3cccc(Cl)c3)c2cc1OC` [AG1478, reference compound], the “PTN-stimulated activation of Akt (phospho-Akt serine 473)” value [5] was “effectively prevented”.

epidermal growth factor [EGF] was tested, and the “increase in tyrosine phosphorylation of β-catenin” value ([6]; 1 minute after stimulation with EGF) was “about 11 fold”, the “tyrosine phosphorylation of β-catenin” value ([6]; 5 minutes after stimulation with EGF) was “Even higher levels” and the “tyrosine phosphorylation of ALK” value [7] was “marked increase”.

With sodium pervanadate [reference compound] the “increase in tyrosine phosphorylation of β-catenin” value ([6]; stimulated with sodium pervanadate) was “about 17 fold”.

With `CC(=O)N[C@@H](CSC(=O)[C@]1([C@@H](O)C(C)C)NC(=O)[C@H](C)[C@@H]1O)C(=O)O` [lactacystin, reference compound] the “ubiquitinated β-catenin levels” value [8] was “remained at the level in HUVS cells not stimulated with PTN”.
